Results: publication PMC10630452, “The tumor-enriched small molecule gambogic amide suppresses glioma by targeting WDR1-dependent cytoskeleton remodeling” (Signal Transduction and Targeted Therapy, 2023)

Legend:
T2-4 cells (PDC) = test: IC50 assay (MTS cell viability); assay type: cell-based; details: Homo sapiens, T2-4, PDC, 48 h
Protocol: (§1) Four PDC lines (T12-1, T12-2, T2-4, T19-1) obtained from the Beijing Tiantan Hospital[53] and three GSC lines (GSC2, U87MG-SLC, U251-SLC) were established and verified in our previous work.[17] Two GCSC lines were kindly provided by Dr. Ran.[54] These cell lines were cultured in neurobasal medium (Gibco) containing 2% B27 (Gibco), 1% 100 × Antibiotic-Antimycotic (Gibco), 2 mmol/L L-glutamine (catalog SH30034.01, HyClone), 20 ng/mL bFGF (catalog 100-18B-50UG, PeproTech), 20 ng/mL EGF (catalog AF-100-15-100UG, PeproTech), and 10 μg/mL heparin (Sigma‒Aldrich). H1-NSCs obtained from D.Q. Pei’s laboratory (Guangzhou Institutes of Biomedicine and Health, Chinese Academy of Sciences, Guangzhou, China), were cultured in the same medium as the PDCs, with the addition of 1% N-2 supplement (Gibco, Thermo Fisher Scientific). The human astrocyte (HA) cell line was purchased from ScienCell and cultured in commercial astrocyte medium (catalog 1801, ScienCell) supplemented with 1% AGS (ScienCell), 2% FBS (ScienCell) and 1% P/S solution (ScienCell). Regarding the GC cell lines, U87MG cells were purchased from the American Type Culture Collection (ATCC), and U251 cells were purchased from the Cell Center of Peking Union Medical College. The GC cells were cultured in DMEM (Gibco) supplemented with 10% FBS (ScienCell) and 1% 100 × Antibiotic-Antimycotic.
(§2) Cells were seeded in 96-well plates and treated with 0, 0.03, 0.1, 0.3, 1, 3, 10, or 30 μM GA-amide (Santa Cruz) in triplicate. After 48 h of incubation, cell viability was quantified using the MTS assay, and the GA-amide cytotoxicity curve was estimated using GraphPad Prism.

T12-2 cells (PDC) = test: IC50 assay (MTS cell viability); assay type: cell-based; details: Homo sapiens, T12-2, PDC, 48 h
Protocol: as §1, §2

[1] = Acute toxicity assay, mice serum biochemical indexes; assay type: in vivo
hippocampal neurons = details: cited from earlier work
[2] = test system: intracranial orthotopic glioma PDX; test: Intracranial orthotopic PDX model (GBM2); assay type: in vivo, NSG mice; details: 1 mg/kg i.v. daily for 10 days
Protocol: Fig. 3 The inhibitory effects of GA-amide in glioma stem cell-derived mouse models and transgenic mouse models. a, b GSC2 cells were implanted s.c. into nude mice. Mice were treated with control (DMSO) (n = 7) or GA-amide (2 mg/kg) (n = 8) via i.p. injection once daily for 11 days, after which a photograph (a) was taken to show the tumor volume, and the tumor volume was calculated by a modified ellipsoid formula in (b). c, d GSC2 cells were implanted intracranially into nude mice. Mice were injected i.v. with control (n = 8) or 1 mg/kg GA-amide (n = 8) daily for 13 days, the Mantel‒Cox log–rank test was used for analysis, and the relative survival curves are shown in (c). The body weights are shown in (d). e In vivo efficacy studies of GA-amide using transgenic mouse models. Glioma was induced in transgenic C57BL/6 mice by injection of pTomo-Ras-sip53 lentivirus, and the strategy is shown. f, g MRI analysis was used to group mice into the control (n = 7) and GA-amide-treated groups (n = 8) before treatment. […]
For the intracranial PDX model, the tumor tissue (GBM2) will be mechanically minced using scissors and then […] NSG mice (Male, 6–8 weeks). […] After 7 days of tumor development, the mice were grouped dependent on the tumor size measured by MRI. […] After treatment, the tumor size was measured by MRI again.

[3] = test system: PDCs (T2-4, T12-1, T12-2) and GSC2 cells; test: Limiting dilution assay (self-renewal); assay type: cell-based; details: pretreatment for 4 h
Protocol: For the tumor sphere formation assay, cells were inoculated in 96-well plates at 600 cells/well in a volume of 100 μL. The tumor spheres with a diameter of 50–100 μm and a diameter of over 100 μm were counted separately under a microscope after 14 days. For the limiting dilution assay, cells were dissociated to generate a single-cell suspension, which was diluted along a gradient for seeding in a 96-well plate at concentrations ranging from 400 cells to 25 cells in a volume of 100 μL per well.

## CC(C)=CCC[C@]1(C)C=Cc2c(O)c3c(c(CC=C(C)C)c2O1)O[C@]12C(=C[C@@H]4CC1C(C)(C)O[C@@]2(C/C=C(/C)C(N)=O)C4=O)C3=O [GA-amide, gambogic amide]
T2-4 cells (PDC)
  IC50: 167 nM
T12-2 cells (PDC)
  IC50: 286 nM
[1]; 1mg/kg one-time i.v.
  ALB (albumin): 19.5 ± 2.4 g/L
  ALP (alkaline phosphatase): 214±36 U/L
  ALT (alanine aminotransferase): 26±2 U/L
  AST (aspartate aminotransferase): 99±20 U/L
  CA (calcium): 2.53 ± 0.12 mmol/L
  CHE (cholinesterase): 7909±1092 U/L
  CK (creatine kinase): 910±503 U/L
  CRE (creatinine): 11.1 ± 1.1 µmol/L
  Cl: 112.0 ± 2.2 mmol/L
  GGT (Gammagliutamyltranspherase): -1±1 U/L
  GLU (glucose): 8.21 ± 3.50 mmol/L
  K: 5.99 ± 0.84 mmol/L
  NA: 147.4 ± 1.5 mmol/L
  TBA (total bile acid): 8.6 ± 6.4 µmol/L
  TBIL (total bilirubin): 3.3 ± 0.5 µmol/L
  TCHO (total cholesterol): 4.34 ± 1.10 mmol/L
  TG (triglyceride): 1.30 ± 0.29 mmol/L
  TP (total protein): 54.5 ± 6.7 g/L
  UREA: 8.11 ± 1.58 mmol/L
[1]; 10mg/kg one-time i.v.
  ALB (albumin): 20.0 ± 0.9 g/L
  ALP (alkaline phosphatase): 217±33 U/L
  ALT (alanine aminotransferase): 37±12 U/L
  AST (aspartate aminotransferase): 113±22 U/L
  CA (calcium): 2.54 ± 0.07 mmol/L
  CHE (cholinesterase): 7828±721 U/L
  CK (creatine kinase): 1157±539 U/L
  CRE (creatinine): 10.9 ± 0.6 µmol/L
  Cl: 111.5 ± 1.7 mmol/L
  GGT (Gammagliutamyltranspherase): -1±1 U/L
  GLU (glucose): 5.61 ± 0.60 mmol/L
  K: 5.97 ± 0.33 mmol/L
  NA: 147.7 ± 2.0 mmol/L
  TBA (total bile acid): 7.9 ± 4.5 µmol/L
  TBIL (total bilirubin): 3.8 ± 1.0 µmol/L
  TCHO (total cholesterol): 4.75 ± 0.93 mmol/L
  TG (triglyceride): 1.62 ± 0.48 mmol/L
  TP (total protein): 55.5 ± 1.8 g/L
  UREA: 8.62 ± 1.32 mmol/L
Hippocampal neurons; 0.5 μM
  toxicity in vitro: did not display any toxicity in vitro
Hippocampal neurons; also induced neurite outgrowth in PC12 cells
  concentrations with protective effect on hippocampal neurons against glutamate-triggered apoptosis: 10 to 50 nM
[2]
  tumor volume by MRI versus control: significantly smaller compared to the control mice
[3]
  self-renewal (limiting dilution): suppressed
